Test results: patent publication US20100022620A1, “EPITOPE REDUCTION THERAPY” (priority 2006, published 2010)

Columns and labels:
[1] = molecular target: T1, human α-1,3-fucosyltransferase V (Homo sapiens, UniProt Q11128); conditions: in the presence of guanosine diphosphate (GDP); cited from earlier work
T1 sequence (Q11128 1-374): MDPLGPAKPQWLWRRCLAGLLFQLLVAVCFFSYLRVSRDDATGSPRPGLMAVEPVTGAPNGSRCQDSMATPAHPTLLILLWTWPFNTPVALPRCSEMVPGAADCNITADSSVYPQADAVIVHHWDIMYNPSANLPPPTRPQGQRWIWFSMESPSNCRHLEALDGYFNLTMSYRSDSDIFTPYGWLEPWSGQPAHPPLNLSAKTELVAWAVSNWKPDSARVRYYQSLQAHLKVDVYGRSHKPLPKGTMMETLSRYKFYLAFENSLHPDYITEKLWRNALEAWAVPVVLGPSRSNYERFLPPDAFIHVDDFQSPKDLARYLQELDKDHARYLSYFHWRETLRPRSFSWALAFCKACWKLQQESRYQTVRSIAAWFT

rat recombinant α-2,3-ST = conditions: cited from earlier work
rat recombinant α-2,6-ST = molecular target: T2, rat recombinant α-2,6-ST (Rattus norvegicus, UniProt P13721); conditions: cited from earlier work
T2 sequence (P13721 1-403): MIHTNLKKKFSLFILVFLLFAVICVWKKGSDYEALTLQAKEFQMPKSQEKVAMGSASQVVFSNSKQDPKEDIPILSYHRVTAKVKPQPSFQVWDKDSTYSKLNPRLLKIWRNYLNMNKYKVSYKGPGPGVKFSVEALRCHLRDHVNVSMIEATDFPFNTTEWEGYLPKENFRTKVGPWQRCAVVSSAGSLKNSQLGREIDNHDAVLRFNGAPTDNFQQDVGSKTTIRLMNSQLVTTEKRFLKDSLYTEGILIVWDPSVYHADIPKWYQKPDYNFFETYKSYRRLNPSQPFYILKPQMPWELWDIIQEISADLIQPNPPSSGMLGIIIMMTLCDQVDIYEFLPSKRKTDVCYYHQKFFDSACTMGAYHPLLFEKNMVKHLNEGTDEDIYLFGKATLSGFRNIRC

PC12 cells [2] = assay: Immunocytology: anti-GT1b antibody binding to PC12 cells by flow cytometry; type: cell-based; conditions: for reduction in anti-ganglioside antibody binding: 3 days of exposure, anti-GT1b mAb
Experimental: (§1) PC12 cells were grown under standard undifferentiated conditions with and without a range of NB-DNJ concentrations (1, 5, 10, 50, 100 and 500 μM). Cells were grown in flasks for immunocytology and analytical studies on ganglioside levels and also in 96-well tissue culture plates for antibody mediated lysis studies. Time points examined were day 0, 1, 2 and 3, and 2 and 3 days post-compound wash out.
PC12 cells were grown in DMEM containing 7.5% FCS and 7.5% horse serum. The medium was supplemented with 0, 1, 5, 10, 50, 100 or 500 μM NB-DNJ and the cells cultured for 3 days. The media was then replaced with DMEM without NB-DNJ and the cells cultured for a further 3 days. At days 0, 1, 2, 3 and days 2 and 3 post NB-DNJ treatment, cells were harvested and ganglioside levels assessed by analysing anti-ganglioside antibody binding using flow cytometry. Briefly, 1×10^5 cells were stained with 10 μg/ml of a murine anti-GT1b mAb for 1 hour at room temperature. Binding was then detected by a FITC labelled antibody with specificity for mouse IgG. Binding is expressed in FIGS. 2 and 3 as the mean fluorescence of triplicate experiments. To allow any reduction in ganglioside levels to be clearly visualised at each time point, the mean fluorescence is shown as a percentage of that at day 0. Error bars indicate sem.

RAW cells [3] = assay: Orcinol-stained TLC of GM1 in RAW cell extract; type: cell-based; conditions: for IC50: GM1 in RAW cells, stated only as comparable to 50 μM, read-out: apparent IC50 estimated from orcinol stained RAW TLC; for levels of GM1 in RAW cells: orcinol staining, 0 to 1000 μM drug (FIG. 15)
Source text: A third TLC plate (FIG. 15) with standardised amounts of sample was run in an identical manner to those in FIG. 14 but stained with orcinol.

PC12 cells [4] = assay: Anti-ganglioside antibody / complement-mediated lysis of PC12 cells (LDH release); type: cell-based
Experimental: as §1
The consequences of reduced anti-ganglioside antibody binding treated cells were evaluated by measuring antibody-mediated cytotoxicity (FIGS. 4 and 5). Thus, cells from each day and NB-DNJ concentration were also assayed for anti-ganglioside antibody-mediated cytotoxicity. Lysis studies were conducted using anti-ganglioside antibodies in conjunction with fresh human serum as a source of complement. Cell viability was quantitated by colourimetric assay measuring LDH release upon cell lysis.
After coating onto 96 well tissue culture plates (5×10^3 cells/well), the cells were incubated with anti-GT1b antibody at 10 μg/ml for 1 hour at room temperature. Then, 10% human serum was added as a source of complement for a further hour at 37° C. Complement-mediated cell lysis was measured using a Cytotox 96 cytotoxic assay kit (Promega), following the instructions supplied. LDH released upon cell lysis was measured by a colourimetric assay; a tetrazolium salt is converted into a red formazan product. […]

PC12 cells [5] = assay: HPLC analysis of GSL levels in NB-DNJ treated PC12 cells; type: cell-based; conditions: day 3, PC12 cells, preliminary analysis
Experimental: as §1
HPLC analysis of the treated and untreated cells was performed to determine the extent of GSL depletion that results from NB-DNJ treatment.

PC12 cells [6] = assay: HPLC analysis of PC12 gangliosides; type: cell-based; conditions: for ganglioside depletion in PC12 cells: HPLC (FIG. 17)
Experimental: In the absence of detectable binding by TLC immuno-overlay, a new technique was necessary to analyse the identity and relative abundance of gangliosides present on PC12 cells. To this end, HPLC was carried out on ganglioside extracted from PC12 cells grown in a range of NB-DGJ and NB-DNJ concentrations from 0-1 mM.

[7] = cited from earlier work; for CNS penetration: mouse, in vivo; for neurological side effects: treatment of adult mice
Neuroblastoma NB1 cells = assay: Fluorescence microscopy of sera binding to Neuroblastoma NB1 cells; type: cell-based; conditions: NB1 cells treated with various concentrations; some GBS serum samples such as patient 7
Source text: This non-specific staining hinders interpretation of results when using whole sera. Cell staining indicated the necessity for a technique which provides isolated antigen, thereby reducing the potential of non-specific staining.

GSL levels = conditions: mice, cited from earlier work
RAW cells [8] = assay: TLC immuno-overlay of RAW cell ganglioside extract with GBS patient serum (anti-GM1 binding); type: cell-based; conditions: for GBS patient sera antibody binding to GM1: RAW cells grown in 0 to 1000 μM drug, patient '8' serum (FIG. 13)
Experimental: GSL was extracted from RAW cells incubated in a range of NB-DNJ and NB-DGJ concentrations from 0 to 1 mM and separated by TLC. Extract was run parallel to purified GM1 on duplicate TLC plates. Immuno-overlay was carried out using patient ‘8’ and control ‘4’ sera.
The procedure was then repeated with standardisation of the amount of material loaded onto the gel (FIG. 14). This was calculated using the bicinchoninic acid protein quantification method (Chan et al., 1993). […] No binding was observed when the overlay was conducted with control serum, indicating specificity of this effect to GBS auto-antibody.

sialyltransferase = conditions: cited from earlier work
[9] = test system: total ganglioside and GM1 content; conditions: cerebrum-brainstem; cited from earlier work
[10] = mouse models of GSL storage diseases; cited from earlier work
GSL biosynthesis = conditions: compared with NB-DNJ; cited from earlier work
[11] = RAW cells, standardised amount of material (FIG. 14)

CCCO[C@H]1O[C@H](CO)[C@@H](O[C@@H]2O[C@H](CO)[C@H](O)[C@H](O)[C@H]2O)[C@H](OCCN2C(C)C(O)C(O)C(O)C2CO)[C@H]1NC(C)=O (stereo partly drawn) [propyl 2-acetamido-2-deoxy-4-O-(β-D-galactopyranosyl)-3-O-(2-(N-(β-L-homofaconojirimycinyl))ethyl)-α-D-glucopyranoside]
inhibition of human α-1,3-fucosyltransferase V [1]: effective inhibitor

cytidin-5′-yl sialylethylphosphonate
IC50 (rat recombinant α-2,3-ST): 47 µM | IC50 (rat recombinant α-2,6-ST): 340 µM

CCCCN1C[C@H](O)[C@@H](O)[C@H](O)[C@H]1CO [NB-DNJ, N-butyldeoxynojirimycin]
anti-ganglioside antibody binding (PC12 cells [2]; 50 μM and higher concentrations): significant time dependent reduction | reduction in anti-ganglioside antibody binding (PC12 cells [2]; 100 μM): 70% | reduction in anti-ganglioside antibody binding (PC12 cells [2]; 500 μM): 90% | anti-ganglioside antibody binding after wash out of the compound (PC12 cells [2]; by day 3 post wash out): returning to the levels of untreated cells | IC50 (RAW cells [3]): ~50 µM | levels of GM1 in RAW cells (RAW cells [3]): drug dependent decrease | protection from complement mediated lysis (PC12 cells [4]; 100 uM): approximately 60% | protection from complement mediated lysis (PC12 cells [4]; 500 uM): ~80% | GSL levels (PC12 cells [5]): 10-20 % of control | ganglioside depletion in PC12 cells (PC12 cells [6]; 50 μM): significant ganglioside depletion | ganglioside depletion in PC12 cells (PC12 cells [6]; 1 mM): Further depletion | CNS penetration [7]: penetrate the CNS | neurological side effects [7]: not to cause neurological side effects | fluorescence of serum binding on drug-treated cells (Neuroblastoma NB1 cells): decrease in fluorescence | time at which effect on GSL levels stabilizes (GSL levels): 10 days | GSL levels (GSL levels; within a day of treatment): measurable decrease | GBS patient sera antibody binding to GM1 (RAW cells [8]): drug dependent decrease | patient anti-GM1 antibody binding as drug concentration was increased (RAW cells [8]; [11]): progressively lower levels

C[C@@H]1O[C@@H](O[C@H]2[C@H](O[C@H]3[C@H](O[C@H]4CC[C@@]5(C)[C@@H](CC[C@]6(C)[C@@H]5CC=C5[C@@H]7CC(C)(C)C[C@@H](O)[C@]7(C)CC[C@]56C)[C@@]4(C)CO)O[C@H](C(=O)O)[C@@H](O)[C@@H]3O)O[C@H](CO)[C@H](O)[C@@H]2O)[C@H](O)[C@H](O)[C@H]1O [Soyasaponin I]
sialyltransferase inhibition (sialyltransferase): potent and specific

CCCCN1C[C@H](O)[C@@H](O)[C@@H](O)[C@H]1CO [NB-DGJ, N-butyldeoxygalactonojirimycin]
IC50 (RAW cells [3]): ~50 µM | levels of GM1 in RAW cells (RAW cells [3]): drug dependent decrease | ganglioside depletion in PC12 cells (PC12 cells [6]; 50 μM): significant ganglioside depletion | ganglioside depletion in PC12 cells (PC12 cells [6]; 1 mM): Further depletion | inhibitor potency, comparison of the two drugs (PC12 cells [6]; PC12 cells, HPLC): more a potent inhibitor | CNS penetration [7]: penetrate the CNS | neurological side effects [7]: not to cause neurological side effects | fluorescence of serum binding on drug-treated cells (Neuroblastoma NB1 cells): decrease in fluorescence | total ganglioside and GM1 content [9]: marked reduction | GBS patient sera antibody binding to GM1 (RAW cells [8]): drug dependent decrease | drug dependent decrease in antibody binding to GM1, comparison of the two drugs (RAW cells [8]; RAW cells, FIG. 13): slightly more efficient | decrease of patient anti-GM1 antibody binding, comparison of the two drugs (RAW cells [8]; [11]): more pronounced | patient anti-GM1 antibody binding as drug concentration was increased (RAW cells [8]; [11]): progressively lower levels | tolerability [10]: very well tolerated | inhibition of GSL biosynthesis (GSL biosynthesis): comparably to NB-DNJ
